Data reported in publication PMC8480782, “Efficient Dimerization Disruption of Leishmania infantum Trypanothione Reductase by Triazole-phenyl-thiazoles” (Journal of Medicinal Chemistry, 2021).
Where “and” joins values, the source holds several entries; their conditions need not be identical. Identical values can stand only once. Entries after “also recorded” stand apart in the source; their conditions may differ. Like-named read-outs stand apart in the source and are kept apart here.

Experiments:
[1] = tested on: L. infantum promastigotes; experiment: Leishmanicidal activity on promastigotes (PI exclusion, flow cytometry); assay type: cell-based, Leishmania infantum; details: for EC50: Leishmania infantum; for SIp (ratio of EC50 against human cells to EC50 against promastigotes): HepG2 / promastigotes
Procedure, shortened: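 Log-phase L. infantum promastigotes (MCAN/ES/89/IPZ229/1/89) at 2 × 10^6 parasites/mL in RPMI-1640 with 10% FCS, pH 7.2, were drug-treated for 24 h at 26 °C. Viability was scored by flow cytometric propidium iodide exclusion, and EC50 was derived by nonlinear regression.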

[2] = tested on: L. infantum intracellular amastigotes; experiment: Leishmanicidal activity in amastigote-infected THP-1 monocyte-derived macrophages; assay type: cell-based, Leishmania infantum
Description: THP-1 monocytes were seeded in a 48-well plate at a concentration of 5 × 10^5 cells/mL (250 μL/well) in RPMI complete medium supplemented with phorbol 12-myristate 13-acetate (PMA) (100 ng/mL). Differentiation of THP-1 monocytes to macrophages was allowed for 24 h at 37 °C and 5% CO2. THP-1-derived macrophages were infected with GFP-expressing axenic amastigotes at 5 × 10^6 parasites/mL in RPMI complete medium for 24 h (250 μL/well). Extracellular amastigotes were washed twice with PBS. The remaining extracellular parasites were challenged for 24 h with THP-1 medium supplemented with 10% horse serum (Gibco) instead of FCS. Cells were washed twice with PBS, and treatments were performed in 250 μL of fresh RPMI medium supplemented with 10% horse serum for 72 h at 37 °C and 5% CO2. Afterward, treatments were removed by two PBS washes. Lysis of infected cells was performed with 120 μL of SDS 0.005% (w/v) in PBS. After a 30 min incubation at 37 °C, lysis was stopped by adding RPMI complete medium with PI at 20 μg/mL (120 μL/well). The lysates were transferred to a 96-well plate (200 μL/well), and the GFP^+ amastigotes extracted from the infected cells were acquired by a Beckman Coulter FC500 flow cytometer. Each sample (100 μL) was acquired for 20 s.
The relative number of GFP^+ intracellular amastigotes per cell in each sample was estimated after the division of the total number of GFP+ amastigotes by the LDH activity value of the sample. Results were normalized to the vehicle-treated controls. EC50 values of intracellular amastigotes were calculated using a nonlinear regression model with GraFit 6 software (Erithacus, Horley, Surrey, U.K.). All of the assays were conducted in at least three independent experiments.

[3] = target: T1, LiTryR (Leishmania infantum, UniProt A4HSF7); experiment: Time-dependent inhibition kinetics of LiTryR (modified DTNB-coupled assay); assay type: biochemical; details: for mechanism of LiTryR inhibition: reaction progress curves / kinetic analysis; for α* (overall two-step process): fit to eq 4; for α (initial EI complex): fit to eq 3
T1 construct: HIS (N); made in house; host or cells: E. coli BL21 (DE3) Rossetta
Description: The inhibitory constants Ki and Ki* for 19a were calculated following a slightly modified version of the standard DTNB-coupled assay.[52] TS2 was serially diluted (sixfold dilution from 1666 to 52 μM) in a buffer containing 40 mM HEPES (pH 7.5) and 1 mM EDTA. The different TS2 solutions were dispensed (15 μL) in a 96-well microplate. 19a was serially diluted in DMSO (sixfold dilution from 1875 to 445 μM). […] These mixtures (180 μL) were subsequently added to the appropriate wells previously filled with different TS2 solutions. The assay was initiated by addition of 55 μL of buffer containing 40 mM HEPES (pH 7.5), 1 mM EDTA, 272.73 μM NADP^+, 0.01% glycerol, and 3.5 nM recombinant LiTryR using an automated dispensing system (PerkinElmer, Waltham, MA). The order of addition was essential to avoid enzyme preincubation with the inhibitor or the substrates. […] TryR oxidoreductase activity was monitored at 26 °C by an increase in absorbance at 412 nm in an EnSpire Multimode Plate Reader (PerkinElmer, Waltham, MA). Coupling an automated dispenser module to the spectrophotometer enabled real-time detection of the enzymatic reaction, which was crucial for high-quality nonlinear fits of the experimental data and, especially, to estimate the initial velocity of the progress curves in the presence of 19a. To guarantee linearity of the enzyme reaction in the absence of an inhibitor, the analysis was performed with data obtained during the first 20 000 s to avoid TS2 depletion. […] All of the assays were conducted in three independent experiments.
kobs values were estimated for every 19a concentration at all TS2 concentrations by fitting the values of the TNB concentration produced during each enzymatic reaction to eq 1.[42b],[53] [drawing 2] 1 where vi and vs are the initial and the steady-state velocities, respectively, kobs is the apparent first-order rate constant for the conversion of vi into the steady-state velocity (vs), and d is a parameter that indicates the displacement of the curve on the vertical ordinate and takes into account any nonzero value of the measured signal at time zero caused by some of the reagents. The apparent inhibition constants (Ki^app and Ki*^app) for each TS2 concentration were determined by fitting the kobs values obtained at different 19a concentrations to eq 2 [drawing 3] 2 where Ki^app is the apparent value of the Ki for the initial encounter complex (EI) and Ki*^app is the apparent value of the overall inhibition constant Ki* to form a higher-affinity complex (E*I). k6 is the first-order rate constant that defines the reverse isomerization step that returns E*I to EI.[42a],[53]
The Ki value for the formation of the EI complex was determined by fitting the Ki^app values obtained at different TS2 concentrations to eq 3. In addition, this graph was used to assess the inhibition modality of 19a during the first equilibrium of its two-step binding mechanism. […] In addition, this graph was used to assess the overall inhibition modality of 19a during its two-step binding mechanism. As explained above, the value obtained for α defines the mode of inhibition.[42a] [drawing 5] 4
Figure S1. […]
Lineweaver–Burk plots of reciprocal initial velocities ( vi) versus reciprocals of four TS2

[4] = 24 h at 26 °C, read-out: EC50 promastigotes
[5] = promastigotes or amastigotes (either form), read-out: EC50 against Leishmania promastigotes or amastigotes
[6] = Leishmania infantum, THP-1, 72 h, amastigote-infected THP-1 macrophages, 72 h, read-out: EC50 intracellular amastigotes
[7] = Leishmania infantum, THP-1, 72 h, read-out: EC50 intracellular amastigotes, amastigote-infected THP-1 macrophages, 72 h
[8] = fit of Ki*^app to eq 4, read-out: Ki* (overall two-step process)
[9] = two-step mechanism, fit of Ki^app to eq 3, read-out: Ki (initial EI complex)

T1 sequence (A4HSF7 1-491): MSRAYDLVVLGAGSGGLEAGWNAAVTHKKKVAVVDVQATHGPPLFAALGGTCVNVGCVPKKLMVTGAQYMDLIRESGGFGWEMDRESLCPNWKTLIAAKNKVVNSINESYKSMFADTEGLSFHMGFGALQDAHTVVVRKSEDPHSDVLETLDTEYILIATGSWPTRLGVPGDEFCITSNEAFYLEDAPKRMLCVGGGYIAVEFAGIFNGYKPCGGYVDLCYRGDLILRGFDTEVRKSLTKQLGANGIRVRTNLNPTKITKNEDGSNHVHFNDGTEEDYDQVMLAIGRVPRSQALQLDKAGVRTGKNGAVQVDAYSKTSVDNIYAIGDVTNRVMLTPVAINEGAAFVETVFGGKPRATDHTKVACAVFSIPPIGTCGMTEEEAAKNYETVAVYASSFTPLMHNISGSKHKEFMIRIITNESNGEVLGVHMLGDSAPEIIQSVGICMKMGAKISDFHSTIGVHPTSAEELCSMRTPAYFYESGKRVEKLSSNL

Compound | EC50 [1, 4] | EC50 [2, 6] | SIp (ratio of EC50 against human cells to EC50 against promastigotes) [1] | mechanism of LiTryR inhibition [3] | EC50 [2, 7] | further results
NCCCCc1cn(-c2ccc(-c3nc(-c4ccccc4)cs3)c(OCCN3CCNC3=O)c2)nn1.O=C(O)C(F)(F)F [12n] | 5.4 ± 0.08 µM |  |  |  |  | EC50 [1, 5]: < 10 µM
NCCNCc1nccn1-c1ccc(-c2nc(CCc3ccc4ccccc4c3)cs2)c(OCCN2CCNC2=O)c1 [compound 2, reference compound] | 12.8 ± 0.7 µM | > 75 µM | 2.1/2.1 |  |  | 
NCCCCc1cn(-c2ccc(-c3nc(CCc4ccc5oc6ccccc6c5c4)cs3)c(OCCN3CCNC3=O)c2)nn1.O=C(O)C(F)(F)F [12s] |  |  |  | slow-binding inhibitors |  | 
NCCNCc1nccn1-c1ccc(-c2nc(CCc3ccc(-c4ccccc4)cc3)cs2)c(OCCN2CCNC2=O)c1 [compound 3, reference compound] | 5.3 ± 0.3 µM | > 75 µM | 2.7 and 2.7/2.7 |  |  | 
NCCCCc1cn(-c2ccc(-c3nc(-c4ccc(Oc5ccccc5)cc4)c(-c4ccccc4)s3)c(OCCN3CCNC3=O)c2)nn1.O=C(O)C(F)(F)F [19c, 1-(2-(5-(4-(4-Ammoniobutyl)-1H-1,2,3-triazol-1-yl)-2-(4-([4-phenyloxyphenyl]-1-yl)-5-phenylthiazol-2-yl)phenoxy)ethyl)imidazolidin-2-one 2,2,2-Trifluoroacetate] |  |  |  |  | > 75 µM | 
NCCCCc1cn(-c2ccc(-c3nc(CCc4ccc5ccccc5c4)cs3)c(OCCN3CCNC3=O)c2)nn1.O=C(O)C(F)(F)F [12b, 1-(2-(5-(4-(4-Ammoniumbutyl)-1H-1,2,3-triazol-1-yl)-2-(4-(2-(naphthalen-2-yl)ethyl)thiazol-2-yl)phenoxy)ethyl)imidazolidin-2-one 2,2,2-Trifluoroacetate] | 8.4 ± 0.3 µM |  | 4.0 | slow-binding inhibitors; also recorded: two-step process of enzyme isomerization | > 75 µM | Ki [3, 8]: 2.6 ± 0.6 µM; α* (overall two-step process) [3]: 1.3 ± 0.6; Ki [3, 9]: 10 ± 2.7 µM; α (initial EI complex) ([3]; two-step mechanism): 2.0 ± 1.3; EC50 [1, 5]: < 10 µM
NCCCCc1cn(-c2ccc(-c3nc(-c4ccccc4)c(-c4ccccc4)s3)c(OCCN3CCNC3=O)c2)nn1.O=C(O)C(F)(F)F [19a, 1-(2-(5-(4-(4-Ammoniobutyl)-1H-1,2,3-triazol-1-yl)-2-(4,5-diphenylthiazol-2-yl)phenoxy)ethyl)imidazolidin-2-one 2,2,2-Trifluoroacetate] | 10.7 ± 1.3 µM |  | 2.5 | slow-binding inhibitors; also recorded: nonlinear noncompetitive hyperbolic inhibition mechanism |  | β, noncompetitive hyperbolic inhibition mechanism ([3]; DTNB-coupled assay, initial velocities, alpha value of 1): 0.5 ± 0.1; Ki ([3]; DTNB-coupled assay, initial velocities, alpha value of 1, read-out: Ki, noncompetitive hyperbolic inhibition mechanism): 12.7 ± 3.5 µM; Ki ([3]; [TS2] 3.1 μM, read-out: Ki*^app): 0.6 ± 0.1 µM; Ki ([3]; [TS2] 3.1 μM, read-out: Ki^app): 8.9 ± 3.1 µM; Ki ([3]; [TS2] 6.2 μM, read-out: Ki*^app): 0.5 ± 0.1 µM; Ki ([3]; [TS2] 6.2 μM, read-out: Ki^app): 7.2 ± 1.7 µM; Ki ([3]; [TS2] 12.5 μM, read-out: Ki*^app): 0.5 ± 0.2 µM; Ki ([3]; [TS2] 12.5 μM, read-out: Ki^app): 5.2 ± 2.6 µM; Ki ([3]; [TS2] 25 μM, read-out: Ki*^app): 0.8 ± 0.2 µM; Ki ([3]; [TS2] 25 μM, read-out: Ki^app): 8.3 ± 3 µM; Ki ([3]; [TS2] 50 μM, read-out: Ki*^app): 1.4 ± 0.3 µM; Ki ([3]; [TS2] 50 μM, read-out: Ki^app): 9.3 ± 3.2 µM; Ki ([3]; [TS2] 100 μM, read-out: Ki*^app): 1.3 ± 0.6 µM; Ki ([3]; [TS2] 100 μM, read-out: Ki^app): 5 ± 2.7 µM; Ki [3, 8]: 0.5 ± 0.1 µM; α* (overall two-step process) [3]: 5.5 ± 2.9; k6, value selected as conservative upper value ([3]; fixed for fitting to eq 2): ≤ 3 × 10^–5 s^–1; Ki [3, 9]: 7.8 ± 1.7 µM; α (initial EI complex) ([3]; two-step mechanism): 0.8 ± 0.4
NCCCCc1cn(-c2ccc(-c3nc(CCc4ccc(-c5ccccc5)cc4)cs3)c(OCCN3CCNC3=O)c2)nn1.O=C(O)C(F)(F)F [12c, 1-(2-(2-(4-(2-([1,1′-Biphenyl]-4-yl)ethyl)thiazol-2-yl)-5-(4-(4-ammoniumbutyl)-1H-1,2,3-triazol-1-yl)phenoxy)ethyl)imidazolidin-2-one 2,2,2-Trifluoroacetate] | 4.9 ± 0.4 µM |  | 8.8 | slow-binding inhibitors | 46.5 ± 1.5 µM | EC50 [1, 5]: < 10 µM
NCCCCc1cn(-c2ccc(-c3nc(CCc4ccc5c(c4)CCO5)cs3)c(OCCN3CCNC3=O)c2)nn1.O=C(O)C(F)(F)F [12r] | 23.8 ± 0.5 µM |  | 1.2 | slow-binding inhibitors |  | 
NCCCCc1cn(-c2ccc(-c3nc(CCc4ccc5c(c4)CCCN5)cs3)c(OCCN3CCNC3=O)c2)nn1.O=C(O)C(F)(F)F.O=C(O)C(F)(F)F [12q] |  | > 75 µM |  | single-step binding mechanism |  | α, reversible single-step mechanism of time-dependent inhibition ([3]; single-step mechanism (Scheme S4)): 0.3 ± 0.2; Ki ([3]; single-step mechanism (Scheme S4), read-out: Ki, reversible single-step mechanism of time-dependent inhibition): 13.6 ± 5.1 µM
NCCCc1cn(-c2ccc(-c3nc(CCc4ccc(-c5ccccc5)cc4)cs3)c(OCCN3CCNC3=O)c2)nn1.O=C(O)C(F)(F)F [12i] | 5.8 ± 0.7 µM | 54.5 µM | 10.4 |  |  | EC50 ([2]; amastigote-infected THP-1 macrophages, 72 h, read-out: EC50 intracellular amastigotes): 54.4 ± 15.5 µM
NCCCCc1cn(-c2ccc(-c3nc(-c4cccc(-c5csc(-c6ccc(-n7cc(CCCCN)nn7)cc6OCCN6CCNC6=O)n5)c4)cs3)c(OCCN3CCNC3=O)c2)nn1.O=C(O)C(F)(F)F.O=C(O)C(F)(F)F [compound 22, 1,1′-((((1,3-Phenylenebis(thiazole-4,2-diyl))bis(5-(4-(4-ammoniobutyl)-1H-1,2,3-triazol-1-yl)-2,1-phenylene))bis(oxy))bis(ethane-2,1-diyl))bis(imidazolidin-2-one)bis(2,2,2-trifluoroacetate)] | 3.8 ± 0.1 µM |  | 8.0 |  | 22 µM | SI (intracellular amastigotes) ([2]; THP-1 / intracellular amastigotes): 2.2; EC50 ([2]; read-out: EC50 intracellular amastigotes, amastigote-infected THP-1 macrophages, 72 h): 22.2 ± 6.4 µM
